In article PMC4061482 (Frontiers in Oncology, 2014):

Target: T1, AKR1C3 (Homo sapiens, UniProt P42330)
T1 sequence (P42330 1-323): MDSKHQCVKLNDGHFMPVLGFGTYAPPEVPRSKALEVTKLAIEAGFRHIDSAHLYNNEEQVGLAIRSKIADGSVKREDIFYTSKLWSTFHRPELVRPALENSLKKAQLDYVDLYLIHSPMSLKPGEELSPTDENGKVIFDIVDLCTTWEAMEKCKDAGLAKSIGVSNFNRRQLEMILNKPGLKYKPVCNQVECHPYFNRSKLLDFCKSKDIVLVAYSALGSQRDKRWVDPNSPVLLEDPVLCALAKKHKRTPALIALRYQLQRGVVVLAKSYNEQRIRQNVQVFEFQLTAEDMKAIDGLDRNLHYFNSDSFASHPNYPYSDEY
Test: 11β-PGF2α formation from PGD2 by ELISA in the cell line panel
Assay type: cell-based
Details: 10 μM; all cell lines that expressed AKR1C3; 28 nM PGD2, 24 h
Experimental: Cells were seeded into 96-well plates in hormone-deprived media at appropriate seeding densities [10,000–50,000 cells per well for all lines except HCC1500 (100,000 cells per well; 11β-PGF2α ELISA)] to reach approximately 70% confluency at the time of sampling and were left to settle for 24 h at 37°C and 5% CO2. Inhibitors were added to the plates at single or multiple concentrations for 1 h prior to administration of equimolar (28 nM) concentrations of PGD2 (11β-PGF2α ELISA), androstenedione (testosterone ELISA), or estrone (17β-estradiol ELISA). The plates were returned to the incubator for a further 24 h before cell supernatant was removed for analysis of 11β-PGF2α, testosterone, or 17β-estradiol by ELISA as per manufacturer’s instructions (11β-PGF2α and testosterone ELISA, Cayman Chemical Company; 17β-estradiol ELISA, Oxford Biomedical Research), and cells were fixed for sulforhodamine B analysis as described below. Each ELISA plate was read at a wavelength of 405 nm (11β-PGF2α and testosterone) or 650 nM (17β-estradiol) on a SpectraMax M2 microplate reader (Molecular Devices) and quantitated against a standard curve generated in hormone-deprived culture media. […]
The PGD2 11-ketoreductase activity of AKR1C3 was determined by stimulating the cell line panel with PGD2 for 24 h, then detecting 11β-PGF2α levels by ELISA.

CC1CCCCN1S(=O)(=O)c1ccc(N2CCCC2=O)cc1 (stereo not shown) [SN33638]
Reduction of 11β-PGF2α levels: ≥ 80%
